Data published in patent US11547681B2, “N-acylethanolamide derivatives and uses thereof” (ELIEM THERAPEUTICS, INC., priority 2016, dated 2023).
Read-outs that look alike come from different tables or passages of the source.

Assay: Simulated intestinal fluid (SIF) stability in the presence of various enzymes
Type: in vitro ADME
Details: 1 μM
Experimental: (§1) Studies were carried out in simulated intestinal fluid in the presence of various enzymes. Simulated intestinal fluid was prepared by dissolving 6.8 g of monobasic potassium phosphate in 1.0 L of water. Aliquots of this solution were taken and the pH was adjusted to 6.8. Individual enzymes were then spiked into aliquots for each experiment. A DMSO stock was first prepared for the test article. Aliquots of the DMSO solution were dosed into 700 μL of matrix, which had been pre-warmed to 37° C., at a final test article concentration of 1 μM. […] Samples were stored at 4° C. until the end of the experiment. After the final time point was sampled, the plate was mixed and then centrifuged at 3,000 rpm for 10 minutes. Calibration standards were prepared in matched matrix. […] Analytical conditions are outlined in Appendix 8-1.
as §1, with “10-1.” for “8-1.”
Studies were carried out in simulated intestinal fluid in the presence of various enzymes. Simulated intestinal fluid was prepared by dissolving 6.8 g of monobasic potassium phosphate in 1.0 L of water. Aliquots of this solution were taken and the pH was adjusted to 6.8. Individual enzymes were then spiked into aliquots for each experiment. A DMSO stock was first prepared for test article. Aliquots of the DMSO solution were dosed into 700 μL of matrix, which had been pre-warmed to 37° C., at a final test article concentration of 1 μM. […] Samples were stored at 4° C. until the end of experiment. After final time point was sampled, the plate was mixed and then centrifuged at 3,000 rpm for 10 minutes. Calibration standards were prepared in matched matrix. […] Analytical conditions are outlined in Appendix 13-1.
as §1, with “17-1.” for “8-1.”

[1] = SIF + Carboxypeptidase A, 0 min
[2] = SIF + Carboxypeptidase A, 15 min
[3] = SIF + Carboxypeptidase A, 30 min
[4] = SIF + Carboxypeptidase A, 60 min
[5] = SIF + Carboxypeptidase A, 120 min
[6] = SIF + Carboxypeptidase B, 0 min
[7] = SIF + Carboxypeptidase B, 15 min
[8] = SIF + Carboxypeptidase B, 30 min
[9] = SIF + Carboxypeptidase B, 60 min
[10] = SIF + Carboxypeptidase B, 120 min
[11] = simulated intestinal fluid with carboxypeptidase A, pH 6.8, SIF + Carboxypeptidase A, read-out: Half-life
[12] = simulated intestinal fluid with carboxypeptidase B, pH 6.8, SIF + Carboxypeptidase B, read-out: Half-life
[13] = simulated intestinal fluid with chymotrypsin, pH 6.8, SIF + Chymotrypsin, read-out: Half-life
[14] = simulated intestinal fluid with elastase, pH 6.8, SIF + Elastase, read-out: Half-life
[15] = simulated intestinal fluid with pancreatin, pH 6.8, SIF + Pancreatin, read-out: Half-life
[16] = simulated intestinal fluid with trypsin, pH 6.8, SIF + Trypsin, read-out: Half-life

% Remaining of Initial (n = 1) [1] [%] | % Remaining of Initial (n = 1) [2] [%] | % Remaining of Initial (n = 1) [3] [%] | % Remaining of Initial (n = 1) [4] [%] | % Remaining of Initial (n = 1) [5] [%] | % Remaining of Initial (n = 1) [6] [%] | % Remaining of Initial (n = 1) [7] [%] | % Remaining of Initial (n = 1) [8] [%] | % Remaining of Initial (n = 1) [9] [%] | % Remaining of Initial (n = 1) [10] [%] | % Remaining of Initial (n = 1) (SIF + Chymotrypsin, 0 min) [%] | % Remaining of Initial (n = 1) (SIF + Chymotrypsin, 15 min) [%] | % Remaining of Initial (n = 1) (SIF + Chymotrypsin, 30 min) [%] | % Remaining of Initial (n = 1) (SIF + Chymotrypsin, 60 min) [%] | % Remaining of Initial (n = 1) (SIF + Chymotrypsin, 120 min) [%] | % Remaining of Initial (n = 1) (SIF + Elastase, 0 min) [%] | % Remaining of Initial (n = 1) (SIF + Elastase, 15 min) [%] | % Remaining of Initial (n = 1) (SIF + Elastase, 30 min) [%] | % Remaining of Initial (n = 1) (SIF + Elastase, 60 min) [%] | % Remaining of Initial (n = 1) (SIF + Elastase, 120 min) [%] | Compound | further results
100 | 77 | 53 | 27 | 37 | 100 | 65 | 31 | 14 | 8.7 | 100 | 82 | 67 | 45 | 15 | 100 | 41 | 16 | 5.6 | 5.0 | CCCCC/C=C\C/C=C\CCCCCCCC(=O)OCC(COC(=O)CCC(=O)OCCNC(=O)CCCCCCCCCCCCCCC)OC(=O)CCCCCCC/C=C\C/C=C\CCCCC (stereo not drawn) [Compound I-13] | % Remaining of Initial (n = 1) (SIF + Pancreatin, 0 min): 100%; % Remaining of Initial (n = 1) (SIF + Pancreatin, 15 min): 1.3%; % Remaining of Initial (n = 1) (SIF + Pancreatin, 30 min): 3.7%; % Remaining of Initial (n = 1) (SIF + Pancreatin, 60 min): 3.4%; % Remaining of Initial (n = 1) (SIF + Pancreatin, 120 min): <1.0%; % Remaining of Initial (n = 1) (SIF + Trypsin, 0 min): 100%; % Remaining of Initial (n = 1) (SIF + Trypsin, 15 min): 78%; % Remaining of Initial (n = 1) (SIF + Trypsin, 30 min): 70%; % Remaining of Initial (n = 1) (SIF + Trypsin, 60 min): 55%; % Remaining of Initial (n = 1) (SIF + Trypsin, 120 min): <1.0%; half-life at 1 μM [11]: 47 min; half-life at 1 μM [12]: 20 min; half-life at 1 μM [13]: 49 min; half-life at 1 μM [14]: 12 min; half-life at 1 μM (simulated intestinal fluid with pancreatin, pH 6.8, SIF + Pancreatin, outside the sampled time range, read-out: Half-life, calculated (in parentheses)): 2.5 min; half-life at 1 μM [15]: < 15 min; half-life at 1 μM [16]: 47 min
100 | 30 | 10 | 4.1 | 3.9 | 100 | 33 | 14 | 5.7 | 2.2 | 100 | 42 | 23 | 13 | 15 | 100 | 44 | 14 | 3.8 | 3.5 | CCCCCCCCCCCCCCCC(=O)NCCOC(=O)CCC(=O)OC[C@H]1O[C@@](CO)(O[C@H]2O[C@H](CO)[C@@H](O)[C@H](O)[C@H]2O)[C@@H](O)[C@@H]1O [Compound I-7] | % Remaining of Initial (n = 1) (SIF + Pancreatin, 0 min): 100%; % Remaining of Initial (n = 1) (SIF + Pancreatin, 15 min): 40%; % Remaining of Initial (n = 1) (SIF + Pancreatin, 30 min): 19%; % Remaining of Initial (n = 1) (SIF + Pancreatin, 60 min): 6.5%; % Remaining of Initial (n = 1) (SIF + Pancreatin, 120 min): 2.7%; % Remaining of Initial (n = 1) (SIF + Trypsin, 0 min): 100%; % Remaining of Initial (n = 1) (SIF + Trypsin, 15 min): 66%; % Remaining of Initial (n = 1) (SIF + Trypsin, 30 min): 44%; % Remaining of Initial (n = 1) (SIF + Trypsin, 60 min): 38%; % Remaining of Initial (n = 1) (SIF + Trypsin, 120 min): 33%; half-life at 1 μM [11]: 8.8 min; half-life at 1 μM [12]: 10 min; half-life at 1 μM [13]: 14 min; half-life at 1 μM [14]: 12 min; half-life at 1 μM [15]: 12 min; half-life at 1 μM [16]: 50 min
100 | 77 | 46 | 60 | 56 | 100 | 87 | 93 | 54 | 19 | 100 | 106 | 99 | 51 | 55 | 100 | 95 | 74 | 64 | 69 | CCCCC/C=C\C/C=C\CCCCCCCC(=O)OCCNC(=O)CCCCCCCCCCCCCCC [Compound I-6] | % Remaining of Initial (n = 1) (SIF + Pancreatin, 0 min): 100%; % Remaining of Initial (n = 1) (SIF + Pancreatin, 15 min): 27%; % Remaining of Initial (n = 1) (SIF + Pancreatin, 30 min): 11%; % Remaining of Initial (n = 1) (SIF + Pancreatin, 60 min): 3.1%; % Remaining of Initial (n = 1) (SIF + Pancreatin, 120 min): 1.7%; % Remaining of Initial (n = 1) (SIF + Trypsin, 0 min): 100%; % Remaining of Initial (n = 1) (SIF + Trypsin, 15 min): 116%; % Remaining of Initial (n = 1) (SIF + Trypsin, 30 min): 87%; % Remaining of Initial (n = 1) (SIF + Trypsin, 60 min): 83%; % Remaining of Initial (n = 1) (SIF + Trypsin, 120 min): 123%; half-life at 1 μM (simulated intestinal fluid with carboxypeptidase A, pH 6.8, SIF + Carboxypeptidase A, outside the sampled time range, read-out: Half-life, calculated (in parentheses)): 134 min; half-life at 1 μM [11]: > 120 min; half-life at 1 μM [12]: 62 min; half-life at 1 μM [13]: 101 min; half-life at 1 μM (simulated intestinal fluid with elastase, pH 6.8, SIF + Elastase, outside the sampled time range, read-out: Half-life, calculated (in parentheses)): 185 min; half-life at 1 μM [14]: > 120 min; half-life at 1 μM [15]: 8.3 min; half-life at 1 μM [16]: > 120 min
100 | 76 | 66 | 36 | 20 | 100 | 86 | 77 | 41 | 15 | 100 | 102 | 84 | 61 | 53 | 100 | 94 | 61 | 44 | 29 | CCCCCCCCCCCCCCCC(=O)NCCOC(=O)CCC(=O)OCC(COC(=O)CCCCCCC)OC(=O)CCCCCCC (stereo not drawn) [Compound I-3, PEA-Succinate-Glycerol-Di-Caprylic] | % Remaining of Initial (n = 1) (SIF + Pancreatin, 0 min): 100%; % Remaining of Initial (n = 1) (SIF + Pancreatin, 15 min): <1.0%; % Remaining of Initial (n = 1) (SIF + Pancreatin, 30 min): <1.0%; % Remaining of Initial (n = 1) (SIF + Pancreatin, 60 min): <1.0%; % Remaining of Initial (n = 1) (SIF + Pancreatin, 120 min): <1.0%; % Remaining of Initial (n = 1) (SIF + Trypsin, 0 min): 100%; % Remaining of Initial (n = 1) (SIF + Trypsin, 15 min): 67%; % Remaining of Initial (n = 1) (SIF + Trypsin, 30 min): 60%; % Remaining of Initial (n = 1) (SIF + Trypsin, 60 min): 55%; % Remaining of Initial (n = 1) (SIF + Trypsin, 120 min): 43%; half-life at 1 μM [11]: 46 min; half-life at 1 μM [12]: 49 min; half-life at 1 μM [13]: 107 min; half-life at 1 μM [14]: 55 min; half-life at 1 μM [15]: < 1 min; half-life at 1 μM [16]: 93 min
